According to ChEMBL document CHEMBL4402510, “Caprazamycins: Promising lead structures acting on a novel antibacterial target MraY” (Eur J Med Chem, 2019):
Values after ≈ are worked out from the molar mass of the structure shown.

System: Mycobacterium tuberculosis variant bovis
Assay: Antibacterial activity against Mycobacterium bovis after 20 hrs by NCCLS-based two-fold broth dilution method
Type: functional

| Structure (SMILES) | MIC [µg/mL] |
| --- | --- |
| CCCCc1ccc(NC(=O)C2=CCN(C)[C@@H]([C@H](O[C@@H]3O[C@H](CN)[C@@H](O)[C@H]3O)[C@H]3O[C@@H](n4ccc(=O)[nH]c4=O)[C@H](O)[C@@H]3O)C(=O)N2C)cc1 | 3.13 (≈ 4.54 µM) |

System: Mycobacterium tuberculosis variant bovis
Assay: Antibacterial activity against Mycobacterium bovis Ravenel
Type: functional

| Structure (SMILES) | MIC [µg/mL] |
| --- | --- |
| CCCCCCCOc1ccc(NC(=O)C2=CCN(C)[C@@H]([C@H](O[C@@H]3O[C@H](CN)[C@@H](O)[C@H]3O)[C@H]3O[C@@H](n4ccc(=O)[nH]c4=O)[C@H](O)[C@@H]3O)C(=O)N2C)cc1 | 0.78 (≈ 1.04 µM) |
| CCCCCCCCCCCCCCNC(=O)C1=CCN(C)[C@@H]([C@H](O[C@@H]2O[C@H](CN)[C@@H](O)[C@H]2O)[C@H]2O[C@@H](n3ccc(=O)[nH]c3=O)[C@H](O)[C@@H]2O)C(=O)N1C | 1.56 (≈ 2.07 µM) |
| CCCCCCCc1ccc(NC(=O)C2=CCN(C)[C@@H]([C@H](O[C@@H]3O[C@H](CN)[C@@H](O)[C@H]3O)[C@H]3O[C@@H](n4ccc(=O)[nH]c4=O)[C@H](O)[C@@H]3O)C(=O)N2C)cc1 | 0.78 (≈ 1.07 µM) |
| CCCCCNC(=O)C1=CCN(C)[C@@H]([C@H](O[C@@H]2O[C@H](CN)[C@@H](O)[C@H]2O)[C@H]2O[C@@H](n3ccc(=O)[nH]c3=O)[C@H](O)[C@@H]2O)C(=O)N1C | 6.25 (≈ 9.97 µM) |
| CCCCCCCCNC(=O)C1=CCN(C)[C@@H]([C@H](O[C@@H]2O[C@H](CN)[C@@H](O)[C@H]2O)[C@H]2O[C@@H](n3ccc(=O)[nH]c3=O)[C@H](O)[C@@H]2O)C(=O)N1C | 1.56 (≈ 2.33 µM) |
| CCCCc1ccc(NC(=O)C2=CCN[C@@H]([C@H](O[C@@H]3O[C@H](CN)[C@@H](O)[C@H]3O)[C@H]3O[C@@H](n4ccc(=O)[nH]c4=O)[C@H](O)[C@@H]3O)C(=O)N2C)cc1 | 3.13 (≈ 4.64 µM) |
| CCCCCCCCCCCNC(=O)C1=CCN(C)[C@@H]([C@H](O[C@@H]2O[C@H](CN)[C@@H](O)[C@H]2O)[C@H]2O[C@@H](n3ccc(=O)[nH]c3=O)[C@H](O)[C@@H]2O)C(=O)N1C | 1.56 (≈ 2.19 µM) |
| CCc1ccc(NC(=O)C2=CCN(C)[C@@H]([C@H](O[C@@H]3O[C@H](CN)[C@@H](O)[C@H]3O)[C@H]3O[C@@H](n4ccc(=O)[nH]c4=O)[C@H](O)[C@@H]3O)C(=O)N2C)cc1 | 1.56 (≈ 2.36 µM) |
| CCCCCCCCCCOC(=O)C1=CCN(C)[C@@H]([C@H](O[C@@H]2O[C@H](CN)[C@@H](O)[C@H]2O)[C@H]2O[C@@H](n3ccc(=O)[nH]c3=O)[C@H](O)[C@@H]2O)C(=O)N1C | 12.5 (≈ 17.9 µM) |
| CCCCCCCCCCCCCCCCCCCCCNC(=O)C1=CCN(C)[C@@H]([C@H](O[C@@H]2O[C@H](CN)[C@@H](O)[C@H]2O)[C@H]2O[C@@H](n3ccc(=O)[nH]c3=O)[C@H](O)[C@@H]2O)C(=O)N1C | 1.56 (≈ 1.83 µM) |
| CCCCCCCCCCCCCCCCNC(=O)C1=CCN(C)[C@@H]([C@H](O[C@@H]2O[C@H](CN)[C@@H](O)[C@H]2O)[C@H]2O[C@@H](n3ccc(=O)[nH]c3=O)[C@H](O)[C@@H]2O)C(=O)N1C | 3.13 (≈ 4.01 µM) |
| CCCCCCCCCCCCCCCCCCNC(=O)C1=CCN(C)[C@@H]([C@H](O[C@@H]2O[C@H](CN)[C@@H](O)[C@H]2O)[C@H]2O[C@@H](n3ccc(=O)[nH]c3=O)[C@H](O)[C@@H]2O)C(=O)N1C | 1.56 (≈ 1.93 µM) |
| CCCCCCCCCNC(=O)C1=CCN(C)[C@@H]([C@H](O[C@@H]2O[C@H](CN)[C@@H](O)[C@H]2O)[C@H]2O[C@@H](n3ccc(=O)[nH]c3=O)[C@H](O)[C@@H]2O)C(=O)N1C | 1.56 (≈ 2.28 µM) |
| CC/C=C/CCCCCCCCCCOC(=O)C1=CCN(C)[C@@H]([C@H](O[C@@H]2O[C@H](CN)[C@@H](O)[C@H]2O)[C@H]2O[C@@H](n3ccc(=O)[nH]c3=O)[C@H](O)[C@@H]2O)C(=O)N1C | 6.25 (≈ 8.31 µM) |
| CCCCOc1ccc(NC(=O)C2=CCN(C)[C@@H]([C@H](O[C@@H]3O[C@H](CN)[C@@H](O)[C@H]3O)[C@H]3O[C@@H](n4ccc(=O)[nH]c4=O)[C@H](O)[C@@H]3O)C(=O)N2C)cc1 | 3.13 (≈ 4.44 µM) |
| CCCCCCCCCCCCCCCCCCOC(=O)C1=CCN(C)[C@@H]([C@H](O[C@@H]2O[C@H](CN)[C@@H](O)[C@H]2O)[C@H]2O[C@@H](n3ccc(=O)[nH]c3=O)[C@H](O)[C@@H]2O)C(=O)N1C | 3.13 (≈ 3.86 µM) |

| Structure (SMILES) | MIC [µg/mL] |
| --- | --- |
| CCCCCCCCCCCCNC(=O)C1=CCN(C)[C@@H]([C@H](O[C@@H]2O[C@H](CN)[C@@H](O)[C@H]2O)[C@H]2O[C@@H](n3ccc(=O)[nH]c3=O)[C@H](O)[C@@H]2O)C(=O)N1C | 1.56 (≈ 2.15 µM) |
| CCCCCCCCCCCCCCCNC(=O)C1=CCN(C)[C@@H]([C@H](O[C@@H]2O[C@H](CN)[C@@H](O)[C@H]2O)[C@H]2O[C@@H](n3ccc(=O)[nH]c3=O)[C@H](O)[C@@H]2O)C(=O)N1C | 1.56 (≈ 2.03 µM) |
| CCCCCCCCCCCCCCCCCCCCNC(=O)C1=CCN(C)[C@@H]([C@H](O[C@@H]2O[C@H](CN)[C@@H](O)[C@H]2O)[C@H]2O[C@@H](n3ccc(=O)[nH]c3=O)[C@H](O)[C@@H]2O)C(=O)N1C | 0.78 (≈ 0.932 µM) |
| CCCCCCCCCCCCCCc1ccc(NC(=O)C2=CCN(C)[C@@H]([C@H](O[C@@H]3O[C@H](CN)[C@@H](O)[C@H]3O)[C@H]3O[C@@H](n4ccc(=O)[nH]c4=O)[C@H](O)[C@@H]3O)C(=O)N2C)cc1 | 3.13 (≈ 3.78 µM) |
| CN1C(=O)[C@H]([C@H](O[C@@H]2O[C@H](CN)[C@@H](O)[C@H]2O)[C@H]2O[C@@H](n3ccc(=O)[nH]c3=O)[C@H](O)[C@@H]2O)N(C)CC=C1C(=O)Nc1ccc(C2CCCCC2)cc1 | 1.56 (≈ 2.18 µM) |
| C=CCCCCCCCCCOC(=O)C1=CCN(C)[C@@H]([C@H](O[C@@H]2O[C@H](CN)[C@@H](O)[C@H]2O)[C@H]2O[C@@H](n3ccc(=O)[nH]c3=O)[C@H](O)[C@@H]2O)C(=O)N1C | 12.5 (≈ 17.6 µM) |
| CN1C(=O)[C@H]([C@H](O[C@@H]2O[C@H](CN)[C@@H](O)[C@H]2O)[C@H]2O[C@@H](n3ccc(=O)[nH]c3=O)[C@H](O)[C@@H]2O)N(C)CC=C1C(=O)NC1CCCCCCCCCCC1 | 1.56 (≈ 2.16 µM) |
| CCCCCCCC/C=C/CCCCCCCCNC(=O)C1=CCN(C)[C@@H]([C@H](O[C@@H]2O[C@H](CN)[C@@H](O)[C@H]2O)[C@H]2O[C@@H](n3ccc(=O)[nH]c3=O)[C@H](O)[C@@H]2O)C(=O)N1C | 3.13 (≈ 3.88 µM) |
| CCCCCCCCCCNC(=O)C1=CCN(C)[C@@H]([C@H](O[C@@H]2O[C@H](CN)[C@@H](O)[C@H]2O)[C@H]2O[C@@H](n3ccc(=O)[nH]c3=O)[C@H](O)[C@@H]2O)C(=O)N1C | 1.56 (≈ 2.24 µM) |
| CCCCCCCCCCCCCCCCCNC(=O)C1=CCN(C)[C@@H]([C@H](O[C@@H]2O[C@H](CN)[C@@H](O)[C@H]2O)[C@H]2O[C@@H](n3ccc(=O)[nH]c3=O)[C@H](O)[C@@H]2O)C(=O)N1C | 1.56 (≈ 1.96 µM) |
| CCCCCCCCCCCCCOC(=O)C1=CCN(C)[C@@H]([C@H](O[C@@H]2O[C@H](CN)[C@@H](O)[C@H]2O)[C@H]2O[C@@H](n3ccc(=O)[nH]c3=O)[C@H](O)[C@@H]2O)C(=O)N1C | 3.13 (≈ 4.23 µM) |
| CCCCCCCNC(=O)C1=CCN(C)[C@@H]([C@H](O[C@@H]2O[C@H](CN)[C@@H](O)[C@H]2O)[C@H]2O[C@@H](n3ccc(=O)[nH]c3=O)[C@H](O)[C@@H]2O)C(=O)N1C | 1.56 (≈ 2.38 µM) |
| CCCCCCCCCCCCCCCCCCCNC(=O)C1=CCN(C)[C@@H]([C@H](O[C@@H]2O[C@H](CN)[C@@H](O)[C@H]2O)[C@H]2O[C@@H](n3ccc(=O)[nH]c3=O)[C@H](O)[C@@H]2O)C(=O)N1C | 1.56 (≈ 1.9 µM) |
| CCCCCCCCCCCCCNC(=O)C1=CCN(C)[C@@H]([C@H](O[C@@H]2O[C@H](CN)[C@@H](O)[C@H]2O)[C@H]2O[C@@H](n3ccc(=O)[nH]c3=O)[C@H](O)[C@@H]2O)C(=O)N1C | 1.56 (≈ 2.11 µM) |
| CCCCCCc1ccc(NC(=O)C2=CCN(C)[C@@H]([C@H](O[C@@H]3O[C@H](CN)[C@@H](O)[C@H]3O)[C@H]3O[C@@H](n4ccc(=O)[nH]c4=O)[C@H](O)[C@@H]3O)C(=O)N2C)cc1 | 0.2 (≈ 0.279 µM) |
| CCCCCCNC(=O)C1=CCN(C)[C@@H]([C@H](O[C@@H]2O[C@H](CN)[C@@H](O)[C@H]2O)[C@H]2O[C@@H](n3ccc(=O)[nH]c3=O)[C@H](O)[C@@H]2O)C(=O)N1C | 3.13 (≈ 4.89 µM) |

System: Mycobacterium tuberculosis variant bovis
Assay: Antibacterial activity against Mycobacterium bovis
Type: functional

| Structure (SMILES) | MIC [µg/mL] |
| --- | --- |
| CO[C@@H]1[C@@H](OC)[C@H](C)O[C@@H](OC(=O)C[C@@H](C)CC(=O)O[C@@H](CCCCCCCCCCC(C)C)CC(=O)O[C@H]2CN(C)[C@@H]([C@H](O[C@@H]3O[C@H](CN)[C@@H](O)[C@H]3O)[C@H]3O[C@@H](n4ccc(=O)[nH]c4=O)[C@H](O)[C@@H]3O)C(=O)N(C)[C@@H]2C(=O)O)[C@@H]1OC | 3.13 (≈ 2.73 µM) |
